Molecules are shown by their SMILES. Where only a bound is given, the exact number is not on record here.

What is called EC50 is the concentration giving half of the maximal effect.

For this experiment, the target named is T1, S1P1 receptor (Homo sapiens, UniProt P21453).
T1 construct: expressed in transfected cells; membranes
Briefly: S1P1 GTPγS binding assay. Type of experiment: biochemical. Particulars: membranes of Rat Basophilic Leukaemia cells (RBL) stably expressing S1P1 receptor, 35S-GTPγS. The procedure: Rat Basophilic Leukaemia cells (RBL) stably expressing S1P1 receptor were grown to 80% confluency before being harvested into 10 ml Phospho-Buffered Saline (PBS) and centrifuged at 1200 rpm for 5 minutes. After removal of the supernatant, the pellet was re-suspended and homogenised in 20 volumes assay buffer (20 mM HEPES pH 7.4, 100 mM NaCl, 10 mM MgCl2.6H2O, 10 μM GDP Saponin 10 μg/ml). The membrane suspension was further centrifuged for 20 minutes at 20,000 rpm re-homogenised and spun again. Following the second centrifugation the pellet was resuspended in an appropriate volume (1 ml for each flask of cells) and assayed for protein concentration.
Concentrated stock of S1P was sonicated before serial dilutions were prepared from a starting concentration of 10^−5 M. Diluted membranes (10 μg/well) were incubated with various concentrations of S1P and 0.3 nM ^35S-GTPγS (NEN; specific activity 1250 Ci/mmol) in 96 deep well plates. Binding was performed at 30° C. for 45 minutes and terminated by harvesting the membranes onto GF/B filter plates using a Packard Universal Harvester. After drying the plates for 45 minutes, 50 μl of Microscint 0 was added to each well and binding measured on a Topcount NXT (Perkin Elmer). Data was analysed using Graphpad Prism 4 and expressed as percentage stimulation above basal. […]
On the technique in general: GTPγS is a poorly hydrolysed GTP analogue; its binding reports G protein activation.

T1 sequence (P21453 whole entry): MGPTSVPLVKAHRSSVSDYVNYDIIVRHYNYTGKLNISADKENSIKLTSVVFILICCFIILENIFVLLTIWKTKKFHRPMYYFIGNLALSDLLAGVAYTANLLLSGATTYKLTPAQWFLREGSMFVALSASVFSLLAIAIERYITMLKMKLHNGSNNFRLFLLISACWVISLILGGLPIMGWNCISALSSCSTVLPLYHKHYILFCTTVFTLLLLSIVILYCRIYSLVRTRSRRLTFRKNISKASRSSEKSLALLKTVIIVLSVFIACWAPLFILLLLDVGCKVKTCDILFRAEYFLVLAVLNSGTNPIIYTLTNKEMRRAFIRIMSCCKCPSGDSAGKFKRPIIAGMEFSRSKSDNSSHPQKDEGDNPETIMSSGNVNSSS

Turning to `CC(C)Oc1ccc(-c2nc(-c3ccc4c(cnn4CCC(=O)O)c3)no2)cc1Cl` [Example 1, 3-[5-(5-{3-Chloro-4-[(1-methylethyl)oxy]phenyl}-1,2,4-oxadiazol-3-yl)-1H-indazol-1-yl]propanoic acid], the EC50 is less than 1000 nM.

For the origin of these results see patent US8324254B2, “Oxadiazole substituted indazole derivatives for use as sphingosine 1-phosphate (S1P) agonists” (Glaxo Group Limited, priority 2007, dated 2012).
